target: T1, transmembrane domain-deleted rat FAAH (ΔTM rFAAH) (Rattus norvegicus, UniProt P97612); conditions: phenyl ring substitution of phenylheptyl template 11e
T1 sequence (P97612 30-579 limits assumed): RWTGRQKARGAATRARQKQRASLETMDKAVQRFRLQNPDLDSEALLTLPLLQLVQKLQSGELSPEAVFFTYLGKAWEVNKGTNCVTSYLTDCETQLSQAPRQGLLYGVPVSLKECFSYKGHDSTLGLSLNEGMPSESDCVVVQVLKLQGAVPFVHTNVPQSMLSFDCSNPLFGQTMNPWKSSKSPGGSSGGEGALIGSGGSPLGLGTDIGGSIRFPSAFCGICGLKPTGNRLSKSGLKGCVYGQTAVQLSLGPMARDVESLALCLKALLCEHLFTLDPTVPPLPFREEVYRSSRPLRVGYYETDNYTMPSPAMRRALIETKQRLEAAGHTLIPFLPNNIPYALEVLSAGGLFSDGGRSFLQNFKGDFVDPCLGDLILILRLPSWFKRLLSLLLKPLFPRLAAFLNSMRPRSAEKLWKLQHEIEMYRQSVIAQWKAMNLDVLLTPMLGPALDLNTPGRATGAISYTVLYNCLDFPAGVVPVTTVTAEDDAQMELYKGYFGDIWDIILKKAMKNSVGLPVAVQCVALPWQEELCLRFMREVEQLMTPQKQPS

| Structure (SMILES) | increase in FAAH inhibitory potency relative to 11e |
| --- | --- |
| O=S(=O)(F)CCCCCCCc1ccccc1OCc1ccccc1 [20c, 7-(2-Benzyloxyphenyl)heptanesulfonyl fluoride] | 9-10 fold |
| O=S(=O)(F)CCCCCCCc1cccc(O)c1 [21b, 7-(3-Hydroxyphenyl)heptanesulfonyl fluoride] | 15- to 31 fold |
| O=S(=O)(F)CCCCCCCc1ccccc1O [21c, 7-(2-Hydroxyphenyl)heptanesulfonyl fluoride] | 15- to 31 fold |

Reference: paper PMC3678964 (Journal of medicinal chemistry, 2012)
